# Measured values: article PMC3994986 (Pigment cell & melanoma research, 2012)
# Ends that are not written are not given here.
# Tests used:
# [1] = biological target: T1, human MC1R (Homo sapiens, UniProt Q01726); assay type: cell-based
# [2] = tested on: MC1R; details: ref Candille et al., 2007; cited from earlier work
# [3] = tested on: HEK293 control cells; test: pERK response in control HEK293 cells; assay type: cell-based, human; details: Figure S2B and E; ligand not given
# [4] = tested on: MC1R; test: Inhibition of α-MSH-induced cAMP; assay type: cell-based; details: Figure S1H
# [5] = biological target: T1, human MC1R; test: cAMP accumulation in HEK293 cells stably expressing human MC1R wild type; assay type: cell-based; details: for agonist character for MC1R-mediated cAMP signalling: HEK cells expressing human MC1R, relative to NDP-MSH
# [6] = tested on: MC1R variants D84E, V92M, R142H, R151C, R160W, D294H; assay type: cell-based, human
# [7] = tested on: mouse melan-a melanocytes; details: concentrations up to 1uM, ref Candille et al., 2007; cited from earlier work
# [8] = biological target: mouse Mc1r; details: ref Candille et al., 2007, cited from earlier work
# [9] = tested on: dog Mc1r; details: ref Candille et al., 2007; cited from earlier work
# [10] = tested on: MC1R variant receptors; details: ref Beaumont et al., 2005, 2007; cited from earlier work
# [11] = tested on: NR4A receptor family; details: ref Smith et al., 2008; cited from earlier work
# [12] = tested on: pERK (HEK293 cells expressing MC1R); assay type: cell-based, human; details: PKA inhibitor H89; 300 nM HBD3 (Figure 2C and D); NDP-MSH (Figure S2D)
# [13] = tested on: MC1R variants in HBL human melanoma cells; details: ref Herraiz et al., 2009, 2011; cited from earlier work
# [14] = tested on: MAPK signalling; details: ref Busca et al., 2000; cited from earlier work
# T1 sequence (Q01726 whole entry): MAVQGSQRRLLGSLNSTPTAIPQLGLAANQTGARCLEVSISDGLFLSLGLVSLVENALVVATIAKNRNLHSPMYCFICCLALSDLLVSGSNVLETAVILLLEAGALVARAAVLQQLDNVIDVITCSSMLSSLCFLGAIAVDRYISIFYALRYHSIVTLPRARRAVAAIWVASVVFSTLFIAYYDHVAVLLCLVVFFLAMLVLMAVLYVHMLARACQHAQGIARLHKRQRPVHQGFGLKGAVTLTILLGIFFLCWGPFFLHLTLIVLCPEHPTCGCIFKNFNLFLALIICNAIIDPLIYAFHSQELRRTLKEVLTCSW
substance,measurement,setting,value
"human β-defensin 3 (GIINTLQKYYCRVRGGRCAVLSCLPKEEQIGKCSTRGRKCCRRKK; ends and bridges not checked; cysteine pairing not given here; UniProt P81534 23-67, looked up) [HBD3]",competitive inhibition of NDP-MSH relative to ASIP-YY (cAMP),[1],weaker competitive inhibitor to NDP-MSH
same,inhibition of 1 nM NDP-MSH-induced cAMP,"[1]; 100 or 300 nM HBD3, two MC1R-expressing HEK clones (WTe, WT#21), 5–10 min, n = 3",able to inhibit the level of 1 nM NDP-MSH-induced cAMP
same,effect of increased concentration on level of inhibition,"[1]; 100 vs 300 nM HBD3, 1 nM NDP-MSH",did not significantly increase the level of inhibition
same,binding to MC1R,[2],found to bind with high affinity to the melanocortin-1 receptor
same,displacement of NDP-MSH in ligand-binding assays,[2],displace NDP-MSH in ligand-binding assays
same,pERK induction in control cells,[3],no induction observed in control cells
same,competitive antagonism of α-MSH induction of cAMP,[4],able to act as a competitive antagonist for α-MSH induction of cAMP
same,cAMP induction compared to 100 nM ASIP-YY,"[5]; 300 nM HBD3, Figure S1E and F",significant increase compared to 100 nM ASIP-YY
same,agonist character for MC1R-mediated cAMP signalling,[5],"partial agonist, with both agonistic and antagonistic effects on cAMP signalling"
same,agonist character for MC1R-mediated cAMP signalling,[5]; listed as β-defensin 3,weak partial agonist for cAMP signalling
same,activation of ERK by variants,"[6]; 300 nM HBD3, 5 min, exception of R151C and D84E, 2–3 independent experiments, Figure 3A, S3B","With the exception of R151C and D84E, HBD3 stimulation produced a similar activation of ERK by variants"
β-defensin 103 [CBD103],cAMP induction in mouse melanocytes,[7],did not induce cAMP
same,Ki,[8]; mouse Mc1r,15.1 nM
same,binding to mouse Mc1r,[8],able to bind to dog and mouse Mc1r
same,binding to dog Mc1r,[9],able to bind to dog and mouse Mc1r
NDP- melanocyte stimulating hormone [NDP-MSH],cAMP response of MC1R variant receptors,[10],impaired cAMP responses
same,induction of the NR4A receptor family,[11],PKC and p38 are involved in the NDP-MSH induction of the NR4A receptor family
same,induction of pERK over basal levels by variant receptors,"[6]; 10 nM NDP-MSH, 5 min, 2–3 independent experiments, Figure 3A, S3A",all variant receptors show an induction of pERK over the basal levels
same,"average pERK increase over basal levels, combined variant receptor cells","[6]; 10 nM NDP-MSH, 5 min, mean, n ≥ 3, normalized to GAPDH",2.7 fold
same,pERK of combined variant receptor clones compared to control cells,"[6]; 10 nM NDP-MSH, 5 min, n ≥ 3, t-test",significant increase compared to the levels of pERK in control cells
same,PKA dependence of MAPK activation,[12],This was also the case for NDP-MSH activation of MAPK
same,MAPK activation by variant receptors versus wild-type MC1R,[13],able to activate MAPK as efficiently as wild-type MC1R
"alpha-melanocyte stimulating hormone (SYSMEHFRWGKPV; ends and bridges not checked; UniProt P01189 138-150, looked up) [α-MSH]",induction of MAPK signalling,[14],induce MAPK signalling
